We go through ten molecules from article PMC2774465 (Journal of natural products, 2008).

≈ marks a conversion by molar mass, not a printed value. Read-outs that look alike come from different tables or passages of the source.

One experiment deals with Trypanasoma cruzi. The experiment in a line: Chagas disease bioassay. Type of experiment: cell-based, T. cruzi. As to conditions: Trypanosoma cruzi.
The subject of a further experiment is Plasmodium falciparum. As to the kind of experiment: Malaria bioassay. Type of experiment: cell-based.
Experiment [1] deals with L. donovani amastigotes (LD-1S/MHOM/SD/00-strain 1S). Type of experiment: cell-based. As to conditions: Leishmania donovani, read-out: IC50 L. donovani.
Another experiment relates to Leishmania. Conditions: cited from earlier work.

Take `O=C1C=C[C@]23Oc4ccc(O)c5c4[C@](CCC5=O)(Oc4cccc1c42)O3` [Compound 1, preussomerin EG1]: in the experiment with Trypanasoma cruzi (read-out: IC50 T. cruzi), the IC50 was above 10 µg/mL.
Consider `O=C1CCC2(Oc3cccc4cccc(c34)O2)c2cccc(O)c21` [Compound 2, palmarumycin CP2], for which the IC50 in the experiment with Plasmodium falciparum (read-out: IC50 P. falciparum) was above 10 µg/mL.
Take `O=C1CCC2(Oc3cccc4cccc(c34)O2)c2c(O)ccc(O)c21` [Compound 3, palmarumycin CP17]: the 50% inhibitory concentration (IC50) in the experiment with Plasmodium falciparum (read-out: IC50 P. falciparum) and in the experiment on Trypanasoma cruzi (read-out: IC50 T. cruzi) was above 10 µg/mL each time.
As to `O=C1C=CC(=O)C2=C1[C@@H](O)CCC21Oc2cccc3cccc(c23)O1` [Compound 4, 4(S)-hydroxy-2,3-dihydro-2(H)-spiro[naphthalene-1(4H),2'-naphtho[1,8-de][1,3]dioxin]-5,8-dione], the IC50 in the experiment with Plasmodium falciparum (read-out: IC50 P. falciparum) and in the experiment on Trypanasoma cruzi (read-out: IC50 T. cruzi) was above 10 µg/mL each time.
As for `Oc1cccc2c1[C@@H](O)CCC21Oc2cccc3cccc(c23)O1` [Compound 5, CJ-12,371], the IC50 in the experiment on Plasmodium falciparum (read-out: IC50 P. falciparum) is above 10 µg/mL.
For `C[C@@H]1[C@H](O)[C@@H](C)/C=C/C=C/C=C/C=C/C=C/C=C/C=C/[C@H](O[C@@H]2O[C@H](C)[C@@H](O)[C@H](N)[C@@H]2O)C[C@@H]2O[C@](O)(C[C@@H](O)C[C@@H](O)[C@H](O)CC[C@@H](O)C[C@@H](O)CC(=O)O[C@H]1C)C[C@H](O)[C@H]2C(=O)O` [amphotericin B], in experiment [1], the IC50 was 90 nM.
`COc1cc(OC)c(-c2c(C)cc3cccc(OC)c3c2O)c2c1C(C)=N[C@@H](C)C2` [ancistrotanzanine A]: the “antileishmanial activity IC50” value in the experiment on Leishmania is 1.8 µg/mL.
Take `COc1cc(OC)c(-c2ccc(OC)c3c(OC)cc(C)cc23)c2c1C(C)=N[C@@H](C)C2` [ancistrotanzanine B]: the “antileishmanial activity IC50” value with Leishmania is 1.6 µg/mL.
Regarding `CCN(CC)CCCC(C)Nc1ccnc2cc(Cl)ccc12` (stereo not drawn) [chloroquine, reference compound], the half-inhibitory concentration (IC50) in the experiment on Plasmodium falciparum (read-out: IC50 (positive control, malaria bioassay)) is 80 to 100 nM.
On to `CC1CS(=O)(=O)CCN1/N=C/c1ccc([N+](=O)[O-])o1` (stereo not drawn) [nifurtimox, reference compound], for which the IC50 with Trypanasoma cruzi (read-out: IC50 (positive control, Chagas disease bioassay)) was 3 to 5 µg/mL (≈ 10.4 to 17.4 µM).

For orientation: IC50 means the point on the concentration scale where inhibition reaches its midpoint.
